Measured values taken from PubChem BioAssay (NCI).
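The compound was tested at five concentrations on cells cultured in 96-well plates, with a 48-hour exposure period. TGI: total growth inhibition.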

How the values were obtained:
Test in all cases: NCI anticancer screen, dose series, 48 h
NCI-H460 lung = system: NCI-H460 lung
HCT-15 colon = system: HCT-15 colon
IGROV1 ovarian = system: IGROV1 ovarian
SNB-19 CNS = system: SNB-19 CNS
MOLT-4 leukemia = system: MOLT-4 leukemia
LOX IMVI melanoma = system: LOX IMVI melanoma
SW-620 colon = system: SW-620 colon
K-562 leukemia = system: K-562 leukemia
SK-OV-3 ovarian = system: SK-OV-3 ovarian
HT29 colon = system: HT29 colon
SK-MEL-2 melanoma = system: SK-MEL-2 melanoma
HOP-62 NSCLC = system: HOP-62 NSCLC
UO-31 renal = system: UO-31 renal
UACC-62 melanoma = system: UACC-62 melanoma
OVCAR-5 ovarian = system: OVCAR-5 ovarian
M14 melanoma = system: M14 melanoma
U251 CNS = system: U251 CNS

`COc1ccc(Cc2c(=O)[nH]nc3ccccc23)cc1` was tested, and the TGI (NCI-H460 lung) was > 100 µM, the TGI (HCT-15 colon) was > 100 µM and the TGI (IGROV1 ovarian) was > 100 µM. The TGI (SNB-19 CNS) was > 100 µM, the TGI (MOLT-4 leukemia) was > 100 µM and the TGI (LOX IMVI melanoma) was > 100 µM. The TGI (SW-620 colon) was > 100 µM, the TGI (K-562 leukemia) was > 100 µM and the TGI (SK-OV-3 ovarian) was > 100 µM. The TGI (HT29 colon) was > 100 µM, the TGI (SK-MEL-2 melanoma) was > 100 µM and the TGI (HOP-62 NSCLC) was > 100 µM. The TGI (UO-31 renal) was > 100 µM, the TGI (UACC-62 melanoma) was > 100 µM and the TGI (OVCAR-5 ovarian) was > 100 µM. For the same molecule, the TGI (M14 melanoma) was > 100 µM.
For `NC(=O)/C(=N\NC(=O)C[n+]1ccccc1)C1NC(=O)NC1=O` (configuration not stated), the TGI (NCI-H460 lung) was > 100 µM, the TGI (HCT-15 colon) was > 100 µM and the TGI (IGROV1 ovarian) was > 100 µM. For the same molecule, the TGI (SNB-19 CNS) was > 100 µM, the TGI (MOLT-4 leukemia) was > 100 µM and the TGI (LOX IMVI melanoma) was > 100 µM. The TGI (SW-620 colon) was > 100 µM, the TGI (K-562 leukemia) was > 100 µM and the TGI (SK-OV-3 ovarian) was > 100 µM. For the same molecule, the TGI (HT29 colon) was > 100 µM, the TGI (SK-MEL-2 melanoma) was > 100 µM and the TGI (HOP-62 NSCLC) was > 100 µM. For the same molecule, the TGI (UO-31 renal) was > 100 µM, the TGI (UACC-62 melanoma) was > 100 µM and the TGI (OVCAR-5 ovarian) was > 100 µM. For the same molecule, the TGI (M14 melanoma) was > 100 µM.
`Clc1ccc(CCn2cncn2)cc1` was tested, and the TGI (NCI-H460 lung) was > 100 µM, the TGI (HCT-15 colon) was > 100 µM and the TGI (IGROV1 ovarian) was > 100 µM. The TGI (MOLT-4 leukemia) was > 100 µM, the TGI (LOX IMVI melanoma) was > 100 µM and the TGI (SW-620 colon) was > 100 µM. The TGI (K-562 leukemia) was > 100 µM, the TGI (SK-OV-3 ovarian) was > 100 µM and the TGI (HT29 colon) was > 100 µM. The TGI (SK-MEL-2 melanoma) was > 100 µM, the TGI (HOP-62 NSCLC) was > 100 µM and the TGI (U251 CNS) was > 100 µM. The TGI (UO-31 renal) was > 100 µM, the TGI (UACC-62 melanoma) was > 100 µM and the TGI (OVCAR-5 ovarian) was > 100 µM. The TGI (M14 melanoma) was > 100 µM.
`C/C(CC(=O)Nc1cc(C)ccc1C)=N/N=C(N)N` was tested, and the TGI (NCI-H460 lung) was > 100 µM, the TGI (IGROV1 ovarian) was > 100 µM and the TGI (MOLT-4 leukemia) was > 100 µM. The TGI (LOX IMVI melanoma) was > 100 µM, the TGI (SW-620 colon) was > 100 µM and the TGI (K-562 leukemia) was > 100 µM. For the same molecule, the TGI (SK-OV-3 ovarian) was > 100 µM, the TGI (HT29 colon) was > 100 µM and the TGI (SK-MEL-2 melanoma) was > 100 µM. For the same molecule, the TGI (HOP-62 NSCLC) was > 100 µM, the TGI (U251 CNS) was > 100 µM and the TGI (UO-31 renal) was > 100 µM. The TGI (UACC-62 melanoma) was > 100 µM, the TGI (OVCAR-5 ovarian) was > 100 µM and the TGI (M14 melanoma) was > 100 µM.
`O=[N+]([O-])c1cc([N+](=O)[O-])c(/C=C/c2ccc(Cl)c(Cl)c2)cc1/C=C/c1ccc(Cl)c(Cl)c1` was tested, and the TGI (NCI-H460 lung) was > 100 µM, the TGI (HCT-15 colon) was 58.9 µM and the TGI (IGROV1 ovarian) was 66.8 µM. The TGI (SNB-19 CNS) was 66.5 µM, the TGI (MOLT-4 leukemia) was 62.4 µM and the TGI (LOX IMVI melanoma) was 61.6 µM. The TGI (SW-620 colon) was 88.6 µM, the TGI (K-562 leukemia) was 78.8 µM and the TGI (SK-OV-3 ovarian) was > 100 µM. For the same molecule, the TGI (HT29 colon) was 63.7 µM, the TGI (SK-MEL-2 melanoma) was 56.4 µM and the TGI (U251 CNS) was > 100 µM. The TGI (UO-31 renal) was 36.1 µM, the TGI (UACC-62 melanoma) was 79.6 µM and the TGI (OVCAR-5 ovarian) was > 100 µM. It also gave a TGI (M14 melanoma) of 52 µM.
`Cc1nc(N2N=C(c3ccc(Cl)cc3)CCC2=O)sc1[N+](=O)[O-]` was tested, and the TGI (NCI-H460 lung) was > 100 µM, the TGI (HCT-15 colon) was > 100 µM and the TGI (IGROV1 ovarian) was > 100 µM. The TGI (SNB-19 CNS) was > 100 µM, the TGI (MOLT-4 leukemia) was > 100 µM and the TGI (LOX IMVI melanoma) was > 100 µM. The TGI (SW-620 colon) was > 100 µM, the TGI (K-562 leukemia) was > 100 µM and the TGI (SK-OV-3 ovarian) was > 100 µM. For the same molecule, the TGI (HT29 colon) was > 100 µM, the TGI (SK-MEL-2 melanoma) was > 100 µM and the TGI (HOP-62 NSCLC) was > 100 µM. The TGI (U251 CNS) was > 100 µM, the TGI (UO-31 renal) was > 100 µM and the TGI (UACC-62 melanoma) was > 100 µM. For the same molecule, the TGI (M14 melanoma) was > 100 µM.
With `CC(=O)C1Cn2c(=O)c3cc4ccccc4cc3c(=O)n2C=C1C` (configuration not stated) the TGI (NCI-H460 lung) was > 100 µM, the TGI (HCT-15 colon) was > 100 µM and the TGI (IGROV1 ovarian) was > 100 µM. For the same molecule, the TGI (SNB-19 CNS) was > 100 µM, the TGI (MOLT-4 leukemia) was > 100 µM and the TGI (LOX IMVI melanoma) was > 100 µM. For the same molecule, the TGI (SW-620 colon) was > 100 µM, the TGI (K-562 leukemia) was > 100 µM and the TGI (SK-OV-3 ovarian) was > 100 µM. The TGI (SK-MEL-2 melanoma) was > 100 µM, the TGI (HOP-62 NSCLC) was > 100 µM and the TGI (U251 CNS) was > 100 µM. For the same molecule, the TGI (UO-31 renal) was > 100 µM, the TGI (OVCAR-5 ovarian) was > 100 µM and the TGI (M14 melanoma) was > 100 µM.
For `CCOP12(OCC)NC(=O)OC1(C(F)(F)F)c1ccccc1O2` (configuration not stated), the TGI (NCI-H460 lung) was > 100 µM, the TGI (HCT-15 colon) was > 100 µM and the TGI (IGROV1 ovarian) was > 100 µM. The TGI (SNB-19 CNS) was > 100 µM, the TGI (MOLT-4 leukemia) was > 100 µM and the TGI (LOX IMVI melanoma) was > 100 µM. For the same molecule, the TGI (K-562 leukemia) was > 100 µM, the TGI (SK-OV-3 ovarian) was > 100 µM and the TGI (HT29 colon) was > 100 µM. For the same molecule, the TGI (SK-MEL-2 melanoma) was > 100 µM, the TGI (UO-31 renal) was > 100 µM and the TGI (UACC-62 melanoma) was > 100 µM. For the same molecule, the TGI (M14 melanoma) was > 100 µM.
With `O=C1C=CC2(C=C1)CCNC1=C2C(=O)c2ccccc2C1=O` the TGI (NCI-H460 lung) was > 100 µM, the TGI (HCT-15 colon) was > 100 µM and the TGI (IGROV1 ovarian) was > 100 µM. The TGI (MOLT-4 leukemia) was > 100 µM, the TGI (LOX IMVI melanoma) was > 100 µM and the TGI (SW-620 colon) was > 100 µM. The TGI (K-562 leukemia) was > 100 µM, the TGI (SK-OV-3 ovarian) was > 100 µM and the TGI (HT29 colon) was > 100 µM. For the same molecule, the TGI (SK-MEL-2 melanoma) was > 100 µM, the TGI (HOP-62 NSCLC) was > 100 µM and the TGI (U251 CNS) was > 100 µM. For the same molecule, the TGI (UO-31 renal) was > 100 µM, the TGI (UACC-62 melanoma) was > 100 µM and the TGI (OVCAR-5 ovarian) was > 100 µM. For the same molecule, the TGI (M14 melanoma) was > 100 µM.
In the case of `O=C1NC(=O)C(C(=O)C(=O)Nc2ccc(Cl)cc2Cl)C(=O)N1`, the TGI (NCI-H460 lung) is reported as > 100 µM, the TGI (HCT-15 colon) is reported as > 100 µM and the TGI (IGROV1 ovarian) is reported as > 100 µM. The TGI (SNB-19 CNS) was > 100 µM, the TGI (MOLT-4 leukemia) was > 100 µM and the TGI (SW-620 colon) was > 100 µM. For the same molecule, the TGI (K-562 leukemia) was > 100 µM, the TGI (SK-OV-3 ovarian) was > 100 µM and the TGI (SK-MEL-2 melanoma) was > 100 µM. For the same molecule, the TGI (HOP-62 NSCLC) was > 100 µM, the TGI (U251 CNS) was > 100 µM and the TGI (UO-31 renal) was > 100 µM. For the same molecule, the TGI (UACC-62 melanoma) was > 100 µM, the TGI (OVCAR-5 ovarian) was > 100 µM and the TGI (M14 melanoma) was > 100 µM.
For `Cc1ccc(C(c2c(O)c3ccccc3n(-c3ccccc3)c2=O)c2c(O)c3ccccc3n(-c3ccccc3)c2=O)cc1`, the TGI (HCT-15 colon) was > 100 µM, the TGI (SNB-19 CNS) was > 100 µM and the TGI (MOLT-4 leukemia) was > 100 µM. For the same molecule, the TGI (LOX IMVI melanoma) was > 100 µM, the TGI (SW-620 colon) was > 100 µM and the TGI (K-562 leukemia) was > 100 µM. For the same molecule, the TGI (SK-MEL-2 melanoma) was > 100 µM, the TGI (HOP-62 NSCLC) was > 100 µM and the TGI (U251 CNS) was > 100 µM. The TGI (UO-31 renal) was > 100 µM and the TGI (OVCAR-5 ovarian) was > 100 µM.
`C(=N\Nc1ccccc1)/c1nc2ccccc2nc1/C=N/Nc1ccccc1` showed a TGI (NCI-H460 lung) of 29 µM, a TGI (HCT-15 colon) of 25.8 µM and a TGI (IGROV1 ovarian) of 21.5 µM. For the same molecule, the TGI (SNB-19 CNS) was 35.4 µM, the TGI (MOLT-4 leukemia) was 79.8 µM and the TGI (LOX IMVI melanoma) was 22.1 µM. For the same molecule, the TGI (SW-620 colon) was 30.7 µM, the TGI (K-562 leukemia) was 20.5 µM and the TGI (SK-OV-3 ovarian) was 38.6 µM. It also gave a TGI (HT29 colon) of 23.5 µM, a TGI (SK-MEL-2 melanoma) of 39.3 µM and a TGI (HOP-62 NSCLC) of 34.6 µM. The TGI (UO-31 renal) was > 84.6 µM, the TGI (UACC-62 melanoma) was 27.3 µM and the TGI (OVCAR-5 ovarian) was 84.9 µM. The TGI (M14 melanoma) was 30 µM.
In the case of `O=C(Nc1cccc(C(F)(F)F)c1)C(=O)C1NC(=S)NC1=O` (configuration not stated), the TGI (NCI-H460 lung) is reported as > 100 µM, the TGI (HCT-15 colon) is reported as > 100 µM and the TGI (IGROV1 ovarian) is reported as > 100 µM. The TGI (SNB-19 CNS) was > 100 µM, the TGI (MOLT-4 leukemia) was > 100 µM and the TGI (LOX IMVI melanoma) was > 100 µM. The TGI (SW-620 colon) was 36.5 µM, the TGI (K-562 leukemia) was > 100 µM and the TGI (SK-OV-3 ovarian) was > 100 µM. The TGI (HT29 colon) was > 100 µM, the TGI (SK-MEL-2 melanoma) was > 100 µM and the TGI (HOP-62 NSCLC) was > 100 µM. The TGI (UO-31 renal) was > 100 µM, the TGI (UACC-62 melanoma) was > 100 µM and the TGI (OVCAR-5 ovarian) was > 100 µM. The TGI (M14 melanoma) was > 100 µM.
